Publication PMC6547681 (Nature Communications, 2019)
Several values for one entry are separate records, joined by “and”; a condition that tells them apart may be missing. Identical values can stand only once. Like-named read-outs stand apart in the source and are kept apart here.

Experiments:
[1] = tested on: BCL-2 WT; experiment: Steady-state competition SPR against immobilised BIMBH3 peptide, BCL-2 WT; assay type: binding, human; details: for Ki: BCL-2 WT
Procedure: (§1) SPR experiments were performed as previously described. […] The lowest concentrations used in direct binding experiments were 1 nM for BIAcore 4000 and 0.1 nM for BIAcore S200 instruments, concentrations below these were below the sensitivity thresholds for the instruments. […] Direct binding experiments were fitted to a 1:1 binding site kinetic model, fitting on and off rates, in BIAevaluation software. For competition experiments steady-state responses were determined in BIAevaluation software according to the software defaults in affinity evaluation mode averaging responses for 5 sec. […] All affinity measurements were performed in at least two independent experiments using independent protein preparations.

[2] = molecular target: BCL-2 G101V/E152A double mutant (Homo sapiens, UniProt P10415, E152A/G101V); experiment: Steady-state competition SPR against immobilised BIMBH3 peptide, BCL-2 G101V/E152A double mutant; assay type: binding
BCL-2 G101V/E152A double mutant, sequence (P10415 with tags, fused parts or gaps G101V/E152A): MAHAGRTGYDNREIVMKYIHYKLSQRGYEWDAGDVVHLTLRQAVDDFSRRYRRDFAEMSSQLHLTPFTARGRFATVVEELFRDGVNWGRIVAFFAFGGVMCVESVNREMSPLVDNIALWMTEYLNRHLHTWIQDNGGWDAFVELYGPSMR
Procedure: as §1

[3] = S55746 concentration 60, BCL-2 concentration 150 nM, independent experiment 1
[4] = S55746 concentration 60, BCL-2 concentration 200 nM, independent experiment 1

O=C(c1cc(-c2cc3c(cc2C(=O)N2Cc4ccccc4C[C@H]2CN2CCOCC2)OCO3)n2c1CCCC2)N(c1ccccc1)c1ccc(O)cc1 [S55746]
Raw data values in Figure 3f (SPR response) ([1]; S55746 concentration 60, BCL-2 concentration 100 nM, independent experiment 3): 70.2062 | Raw data values in Figure 3f (SPR response) [1, 3]: 94.4799 | Raw data values in Figure 3f (SPR response) ([1]; S55746 concentration 60, BCL-2 concentration 150 nM, independent experiment 3): 81.267 | Raw data values in Figure 3f (SPR response) [1, 4]: 96.2757 | Raw data values in Figure 3f (SPR response) ([1]; S55746 concentration 60, BCL-2 concentration 200 nM, independent experiment 3): 87.9958 | Raw data values in Figure 3f (SPR response) ([1]; S55746 concentration 80, BCL-2 concentration 1 nM, independent experiment 2): 1.2215 | Raw data values in Figure 3f (SPR response) ([1]; S55746 concentration 80, BCL-2 concentration 3 nM, independent experiment 2): 2.493 | Raw data values in Figure 3f (SPR response) ([1]; S55746 concentration 80, BCL-2 concentration 4 nM, independent experiment 2): 3.639 | Raw data values in Figure 3f (SPR response) ([1]; S55746 concentration 80, BCL-2 concentration 6 nM, independent experiment 2): 4.673 | Raw data values in Figure 3f (SPR response) ([1]; S55746 concentration 80, BCL-2 concentration 8 nM, independent experiment 2): 5.6951 | Raw data values in Figure 3f (SPR response) ([1]; S55746 concentration 80, BCL-2 concentration 9 nM, independent experiment 2): 6.782 | Raw data values in Figure 3f (SPR response) ([1]; S55746 concentration 80, BCL-2 concentration 11 nM, independent experiment 2): 7.791 | Raw data values in Figure 3f (SPR response) ([1]; S55746 concentration 80, BCL-2 concentration 12 nM, independent experiment 2): 8.945 | Raw data values in Figure 3f (SPR response) ([1]; S55746 concentration 80, BCL-2 concentration 16 nM, independent experiment 2): 11.2715 | Raw data values in Figure 3f (SPR response) ([1]; S55746 concentration 80, BCL-2 concentration 24 nM, independent experiment 2): 17.5573 | Raw data values in Figure 3f (SPR response) ([1]; S55746 concentration 80, BCL-2 concentration 40 nM, independent experiment 2): 30.3087 | Ki ([1]; read-out: S55746 KI (mean), competition vs BIMBH3 SPR surface, mean ± SD, n ≥ 2): 0.36 nM and 0.356 nM | Ki ([1]; read-out: S55746 KI, single independent experiments, independent experiments 1-3): 0.358 nM and 0.372 nM and 0.338 nM | Raw data values in Figure 3h (SPR response) ([2]; S55746 concentration 20, BCL-2 concentration 10 nM, independent experiment 1): 30.4614 | Raw data values in Figure 3h (SPR response) ([2]; S55746 concentration 20, BCL-2 concentration 10 nM, independent experiment 2): 6.021 | Raw data values in Figure 3h (SPR response) ([2]; S55746 concentration 20, BCL-2 concentration 20 nM, independent experiment 1): 65.5037 | Raw data values in Figure 3h (SPR response) ([2]; S55746 concentration 20, BCL-2 concentration 20 nM, independent experiment 2): 18.8646 | Raw data values in Figure 3h (SPR response) ([2]; S55746 concentration 20, BCL-2 concentration 30 nM, independent experiment 1): 76.9824 | Raw data values in Figure 3h (SPR response) ([2]; S55746 concentration 20, BCL-2 concentration 30 nM, independent experiment 2): 27.9038 | Raw data values in Figure 3h (SPR response) ([2]; S55746 concentration 20, BCL-2 concentration 40 nM, independent experiment 1): 81.6304 | Raw data values in Figure 3h (SPR response) ([2]; S55746 concentration 20, BCL-2 concentration 40 nM, independent experiment 2): 34.3045 | Raw data values in Figure 3h (SPR response) ([2]; S55746 concentration 20, BCL-2 concentration 50 nM, independent experiment 1): 84.581 | Raw data values in Figure 3h (SPR response) ([2]; S55746 concentration 20, BCL-2 concentration 50 nM, independent experiment 2): 38.4913 | Raw data values in Figure 3h (SPR response) ([2]; S55746 concentration 20, BCL-2 concentration 60 nM, independent experiment 1): 86.8988 | Raw data values in Figure 3h (SPR response) ([2]; S55746 concentration 20, BCL-2 concentration 60 nM, independent experiment 2): 42.4602 | Raw data values in Figure 3h (SPR response) ([2]; S55746 concentration 20, BCL-2 concentration 70 nM, independent experiment 1): 87.9145 | Raw data values in Figure 3h (SPR response) ([2]; S55746 concentration 20, BCL-2 concentration 70 nM, independent experiment 2): 45.435 | Raw data values in Figure 3h (SPR response) ([2]; S55746 concentration 20, BCL-2 concentration 80 nM, independent experiment 1): 88.9424 | Raw data values in Figure 3h (SPR response) ([2]; S55746 concentration 20, BCL-2 concentration 80 nM, independent experiment 2): 47.8619 | Raw data values in Figure 3h (SPR response) ([2]; S55746 concentration 20, BCL-2 concentration 100 nM, independent experiment 1): 90.7371 | Raw data values in Figure 3h (SPR response) ([2]; S55746 concentration 20, BCL-2 concentration 100 nM, independent experiment 2): 52.9424 | Raw data values in Figure 3h (SPR response) ([2]; S55746 concentration 20, BCL-2 concentration 150 nM, independent experiment 1): 92.2147 | Raw data values in Figure 3h (SPR response) ([2]; S55746 concentration 20, BCL-2 concentration 150 nM, independent experiment 2): 60.437 | Raw data values in Figure 3h (SPR response) ([2]; S55746 concentration 20, BCL-2 concentration 200 nM, independent experiment 1): 94.1481 | Raw data values in Figure 3h (SPR response) ([2]; S55746 concentration 20, BCL-2 concentration 200 nM, independent experiment 2): 65.8724 | Raw data values in Figure 3h (SPR response) ([2]; S55746 concentration 40, BCL-2 concentration 10 nM, independent experiment 1): 10.773 | Raw data values in Figure 3h (SPR response) ([2]; S55746 concentration 40, BCL-2 concentration 10 nM, independent experiment 2): 1.948 | Raw data values in Figure 3h (SPR response) ([2]; S55746 concentration 40, BCL-2 concentration 20 nM, independent experiment 1): 28.9257 | Raw data values in Figure 3h (SPR response) ([2]; S55746 concentration 40, BCL-2 concentration 20 nM, independent experiment 2): 5.643 | Raw data values in Figure 3h (SPR response) ([2]; S55746 concentration 40, BCL-2 concentration 30 nM, independent experiment 1): 52.4298 | Raw data values in Figure 3h (SPR response) ([2]; S55746 concentration 40, BCL-2 concentration 30 nM, independent experiment 2): 13.0173 | Raw data values in Figure 3h (SPR response) ([2]; S55746 concentration 40, BCL-2 concentration 40 nM, independent experiment 1): 71.0654 | Raw data values in Figure 3h (SPR response) ([2]; S55746 concentration 40, BCL-2 concentration 40 nM, independent experiment 2): 23.2512 | Raw data values in Figure 3h (SPR response) ([2]; S55746 concentration 40, BCL-2 concentration 50 nM, independent experiment 1): 78.1857 | Raw data values in Figure 3h (SPR response) ([2]; S55746 concentration 40, BCL-2 concentration 50 nM, independent experiment 2): 30.4785 | Raw data values in Figure 3h (SPR response) ([2]; S55746 concentration 40, BCL-2 concentration 60 nM, independent experiment 1): 82.5478 | Raw data values in Figure 3h (SPR response) ([2]; S55746 concentration 40, BCL-2 concentration 60 nM, independent experiment 2): 36.3344 | Raw data values in Figure 3h (SPR response) ([2]; S55746 concentration 40, BCL-2 concentration 70 nM, independent experiment 1): 84.8279 | Raw data values in Figure 3h (SPR response) ([2]; S55746 concentration 40, BCL-2 concentration 70 nM, independent experiment 2): 40.4837 | Raw data values in Figure 3h (SPR response) ([2]; S55746 concentration 40, BCL-2 concentration 80 nM, independent experiment 1): 86.613 | Raw data values in Figure 3h (SPR response) ([2]; S55746 concentration 40, BCL-2 concentration 80 nM, independent experiment 2): 44.3565 | Raw data values in Figure 3h (SPR response) ([2]; S55746 concentration 40, BCL-2 concentration 100 nM, independent experiment 1): 88.6534 | Raw data values in Figure 3h (SPR response) ([2]; S55746 concentration 40, BCL-2 concentration 100 nM, independent experiment 2): 49.9278 | Raw data values in Figure 3h (SPR response) ([2]; S55746 concentration 40, BCL-2 concentration 150 nM, independent experiment 1): 91.2516 | Raw data values in Figure 3h (SPR response) ([2]; S55746 concentration 40, BCL-2 concentration 150 nM, independent experiment 2): 58.1685 | Raw data values in Figure 3h (SPR response) ([2]; S55746 concentration 40, BCL-2 concentration 200 nM, independent experiment 1): 92.8828 | Raw data values in Figure 3h (SPR response) ([2]; S55746 concentration 40, BCL-2 concentration 200 nM, independent experiment 2): 64.0843 | Raw data values in Figure 3h (SPR response) ([2]; S55746 concentration 60, BCL-2 concentration 10 nM, independent experiment 1): 8.7572 | Raw data values in Figure 3h (SPR response) ([2]; S55746 concentration 60, BCL-2 concentration 10 nM, independent experiment 2): 1.402 | Raw data values in Figure 3h (SPR response) ([2]; S55746 concentration 60, BCL-2 concentration 20 nM, independent experiment 1): 17.8604 | Raw data values in Figure 3h (SPR response) ([2]; S55746 concentration 60, BCL-2 concentration 20 nM, independent experiment 2): 2.802 | Raw data values in Figure 3h (SPR response) ([2]; S55746 concentration 60, BCL-2 concentration 30 nM, independent experiment 1): 29.7852 | Raw data values in Figure 3h (SPR response) ([2]; S55746 concentration 60, BCL-2 concentration 30 nM, independent experiment 2): 5.592 | Raw data values in Figure 3h (SPR response) ([2]; S55746 concentration 60, BCL-2 concentration 40 nM, independent experiment 1): 46.113 | Raw data values in Figure 3h (SPR response) ([2]; S55746 concentration 60, BCL-2 concentration 40 nM, independent experiment 2): 9.958 | Raw data values in Figure 3h (SPR response) ([2]; S55746 concentration 60, BCL-2 concentration 50 nM, independent experiment 1): 65.5161 | Raw data values in Figure 3h (SPR response) ([2]; S55746 concentration 60, BCL-2 concentration 50 nM, independent experiment 2): 18.5156 | Raw data values in Figure 3h (SPR response) ([2]; S55746 concentration 60, BCL-2 concentration 60 nM, independent experiment 1): 78.402 | Raw data values in Figure 3h (SPR response) ([2]; S55746 concentration 60, BCL-2 concentration 60 nM, independent experiment 2): 29.1548 | Raw data values in Figure 3h (SPR response) ([2]; S55746 concentration 60, BCL-2 concentration 70 nM, independent experiment 1): 82.48 | Raw data values in Figure 3h (SPR response) ([2]; S55746 concentration 60, BCL-2 concentration 70 nM, independent experiment 2): 34.7085 | Raw data values in Figure 3h (SPR response) ([2]; S55746 concentration 60, BCL-2 concentration 80 nM, independent experiment 1): 84.2763 | Raw data values in Figure 3h (SPR response) ([2]; S55746 concentration 60, BCL-2 concentration 80 nM, independent experiment 2): 38.0757 | Raw data values in Figure 3h (SPR response) ([2]; S55746 concentration 60, BCL-2 concentration 100 nM, independent experiment 1): 87.9314 | Raw data values in Figure 3h (SPR response) ([2]; S55746 concentration 60, BCL-2 concentration 100 nM, independent experiment 2): 45.7651 | Raw data values in Figure 3h (SPR response) [2, 3]: 91.7815 | Raw data values in Figure 3h (SPR response) ([2]; S55746 concentration 60, BCL-2 concentration 150 nM, independent experiment 2): 56.7196 | Raw data values in Figure 3h (SPR response) [2, 4]: 93.0262 | Raw data values in Figure 3h (SPR response) ([2]; S55746 concentration 60, BCL-2 concentration 200 nM, independent experiment 2): 63.1726
